According to patent US20240216589A1, “DRUG DELIVERY COMPOSITIONS AND METHODS OF CONTROLLING DRUG DELIVERY RATES OF SUBCUTANEOUS SENSORS” (ABBOTT DIABETIS CARE INC., priority 2022, published 2024):

Test: Dex solubility in the polyvinylpyridine-ethanol:water (95:5 by volume) solution
Type: physicochemical
Experimental: FIG. 33 illustrates the Dex solubility in the polyvinylpyridine-ethanol:water (95:5 by volume) solution according to certain embodiments of the present disclosure. The solubility of Dex in the PVP-ethanol:water solution was measured. For the solutions containing 0 wt %-30 wt % of Dex relative to the weight amount of PVP polymer, after the solutions were vortexed/sonicated within 15 minutes, the solutions became clear. […] Therefore, the drug delivery composition can include up to 40 wt % of Dex relative to the amount of copolymer to make a clear drug delivery composition.

solution clarity (0 wt %-30 wt % of Dex relative to PVP, vortexed/sonicated within 15 minutes): became clear | solution clarity (40 wt % of Dex relative to PVP, mixing overnight on the nutator): became clear after mixing overnight | solution clarity (50 wt % of Dex relative to PVP, mixing overnight on the nutator): did not become clear | maximum Dex relative to the amount of copolymer to make a clear drug delivery composition (ethanol:water 95:5 by volume): up to 40 wt %
Compound: C[C@@H]1C[C@H]2[C@@H]3CCC4=CC(=O)C=C[C@]4(C)[C@@]3(F)[C@@H](O)C[C@]2(C)[C@@]1(O)C(=O)CO [Dex, dexamethasone]
